Source: US20080312435A1, “Imine Compound” (TAISHO PHARMACEUTICAL CO., LTD., priority 2004, published 2008)
Where two headings read alike, the source gives them in different places.

Tests used:
human CB2 receptor = target: T1, human CB2 receptor (Homo sapiens, UniProt P34972); assay: Human CB2 receptor binding inhibition test ([3H]CP-55,940, CHO membrane fractions)
T1 construct: expressed in transfected cells
Source text: Human CB2 Receptor Binding Inhibition Test
First, cDNA sequence (Munro et al., Nature, 1993, 365, 61-65) encoding a human CB2 receptor was inserted in the forward direction in an animal-cell expression vector, pTARGET Vector (manufactured by Promega) at a region downstream of a CMV promoter. Host cells CHO-DHFR(−) were transfected with the obtained expression vector with the aid of Lipofectamine (manufactured by Invitrogen) to obtain cells capable of stably expressing the CB2 receptor.
After the filtrate was washed with an assay buffer containing 0.1% bovine serum albumin, the radioactivity on the glass filter was measured by a liquid scintillation counter. Nonspecific binding was measured in the presence of 2.0 μM CP-55,940 (manufactured by Tocris). 50% inhibitory concentration (IC50 value) of the test compound for the specific binding was obtained.

[1] = [3H]CP-55,940, membrane fractions of CHO cells stably expressing human CB2 receptor, 25° C., 2 hours, read-out: CB2 IC50 (Inhibition of binding to human CB2 receptor)

T1 sequence (P34972 whole entry): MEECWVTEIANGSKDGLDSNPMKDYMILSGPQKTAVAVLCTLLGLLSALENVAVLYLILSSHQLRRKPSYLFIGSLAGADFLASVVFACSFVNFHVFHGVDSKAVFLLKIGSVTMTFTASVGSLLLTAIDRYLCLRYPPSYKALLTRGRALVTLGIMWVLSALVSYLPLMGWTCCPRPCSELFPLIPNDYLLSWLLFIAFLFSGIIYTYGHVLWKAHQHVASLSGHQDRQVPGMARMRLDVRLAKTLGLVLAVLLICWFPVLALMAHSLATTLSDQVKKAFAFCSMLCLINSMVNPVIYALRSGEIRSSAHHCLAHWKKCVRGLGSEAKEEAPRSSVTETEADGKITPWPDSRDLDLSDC

Row | melting point [°C] | SMILES | IC50 (human CB2 receptor; [1]) [nM] | IC50 (human CB2 receptor) [nM]
1 | – | Cc1c(C(C)(C)C)s/c(=N\C(=O)c2cccc(Cl)c2)n1CC1CC1 [compound 187] | 17 | –
2 | – | CCCCn1c(C)c(C(C)(C)C)s/c1=N\S(=O)(=O)c1cccc2ccccc12 [compound 387] | 13.7 | –
3 | – | CCc1ccccc1C(=O)/N=c1\sc(C(C)(C)C)c(C)n1CC [compound 150] | 15 | –
4 | – | CC(C)(C)c1c/c(=N\C(=O)c2cc(C(F)(F)F)ccc2F)n(CC2CC2)o1 [compound 54] | 18.7 | –
5 | – | COc1ccccc1C(=O)/N=c1\sc(C(C)(C)C)c(C)n1CC1CC1 [compound 195] | 3.2 | –
6 | – | Cc1c(C(C)(C)C)s/c(=N\C(=O)c2ccccc2OC(F)(F)F)n1CC1CC1 [compound 197] | 2 | –
7 | – | CC(C)OCCn1/c(=N/C(=O)c2cccc(C(F)(F)F)c2F)cc(C(C)(C)C)n1C [compound 493] | 1.9 | –
8 | – | Cc1c(C(C)(C)C)s/c(=N\S(=O)(=O)c2cccc(Cl)c2Cl)n1CC1CC1 [compound 399] | 6.8 | –
9 | – | Cn1c(C(C)(C)C)c/c(=N\C(=O)c2cccc(C(F)(F)F)c2F)n1CC1CCC1 [compound 482, N-(5-t-butyl-2-cyclobutylmethyl-1,2-dihydro-1-methylpyrazol-3-ylidene)-2-fluoro-3-(trifluoromethyl)benzamide] | 1.2 | –
10 | – | Cn1c(C(C)(C)C)c/c(=N\C(=O)c2cccc(C(F)(F)F)c2Cl)n1CC1CC1 [Compound No. 476, N-(5-t-butyl-2-cyclopropylmethyl-1,2-dihydro-1-methylpyrazol-3-ylidene)-2-chloro-3-(trifluoromethyl)benzamide] | – | 3.9
11 | – | Cc1c(C(C)(C)C)s/c(=N\C(=O)c2ccc(F)cc2C(F)(F)F)n1CC1CC1 [compound 255] | 0.6 | –
12 | – | CCOCCn1/c(=N/C(=O)c2cccc(C(F)(F)F)c2F)cc(C(C)(C)C)n1C [compound 488] | 4 | –
13 | – | Cn1c(C(C)(C)C)c/c(=N\C(=O)c2cccc(C(F)(F)F)c2F)n1CC1CCCC1 [compound 485] | 1.1 | –
14 | – | Cc1c(C(=O)/N=c2\cc(C(C)(C)C)n(C)n2CC2CC2)cccc1C(F)(F)F [compound 470] | 10.6 | –
15 | – | Cc1cc(C)c(S(=O)(=O)/N=c2\sc(C(C)(C)C)c(C)n2CC2CC2)c(C)c1 [compound 410] | 7.1 | –
16 | – | CCn1c(C(C)(C)C)c/c(=N\C(=O)c2cccc(C(F)(F)F)c2F)n1CC1CC1 [compound 495] | 6.3 | –
17 | – | Cc1c(C(C)(C)C)s/c(=N\C(=O)c2cccc(F)c2F)n1CC1CC1 [compound 222] | 11.3 | –
18 | – | Cc1c(C(C)C)o/c(=N\C(=O)c2cccc(C(F)(F)F)c2F)n1CC1CC1 [compound 369] | 1.4 | –
19 | – | CC(C)(C)c1nn(CC2CC2)/c(=N/C(=O)c2cccc(C(F)(F)F)c2F)s1 [compound 504] | 15.4 | –
20 | – | Cc1c(C(C)(C)C)s/c(=N\C(=O)c2cccc(C#N)c2)n1CC1CC1 [compound 211] | 12 | –
21 | – | CCOc1ccncc1C(=O)/N=c1\sc(C(C)(C)C)nn1CC1CC1 [compound 513] | 16.9 | –
22 | – | CC#CCn1c(C)c(C(C)(C)C)s/c1=N\S(=O)(=O)c1cccc2ccccc12 [compound 427] | 5.9 | –
23 | – | CCn1c(C)c(C(C)(C)C)s/c1=N\C(=O)c1ccc(Cl)cc1OC [compound 168] | 5.4 | –
24 | 153 to 155 | Cc1cccc(C(=O)/N=c2\cc(C(C)(C)C)n(C)n2CC2CC2)c1Br | – | –
25 | 136 to 137 | CCOCCn1/c(=N/C(=O)c2cccc(C(F)(F)F)c2F)cc(C)n1C | – | –

Row | melting point [°C] | SMILES | IC50 (human CB2 receptor; [1]) [nM] | IC50 (human CB2 receptor) [nM]
26 | 124 to 126 | COc1cc(C(=O)/N=c2\sc(C(C)(C)C)c(C)n2CC2CC2)c(OC)nn1 | – | –
27 | 92 to 94 | Cc1c(C(C)(C)C)s/c(=N\C(=O)Cc2ccccc2)n1CC1CC1 | – | –
28 | 158 to 160 | CCn1c(C)c(Cl)s/c1=N\C(=O)c1cccc(C(F)(F)F)c1F | – | –
29 | – | CC(C)(C)c1c/c(=N\C(=O)c2cccc(C(F)(F)F)c2)n(CC2CC2)s1 [compound 57] | 3.8 | –
30 | 113 to 115 | Cc1s/c(=N\C(=O)c2cc(Cl)ccc2Cl)n(CC2CC2)c1C | – | –
31 | – | Cc1c(C(C)(C)C)s/c(=N\C(=O)c2cccc(Cl)c2F)n1CC1CC1 [compound 225] | 3.9 | –
32 | 126 to 128 | COc1ccc/c(=N\C(=O)c2cccc(C(F)(F)F)c2F)n1CC1CC1 | – | –
33 | – | Cc1c(C(C)(C)C)s/c(=N\C(=O)c2cccc(C(F)(F)F)c2F)n1CC1CC1 [compound 250] | 1.1 | –
34 | 173 to 175 | Cc1ccccc1C(=O)/N=c1\sc(C(C)(C)C)c(C)n1C | – | –
35 | 291 to 293 | Cc1c(C(=O)O)s/c(=N\C(=O)c2cccc(C(F)(F)F)c2)n1CC1CC1 | – | –
36 | 158 to 159 | Cn1c(C(C)(C)C)c/c(=N\C(=O)c2cccc(Cl)c2Cl)n1CC1CC1 | – | –
37 | 97 to 98 | Cc1c(C(C)(C)C)s/c(=N\C(=O)c2cccnc2N2CCCC2)n1CC1CC1 | – | –
38 | 195 to 197 | Cc1c(C(C)(C)C)s/c(=N\C(=O)c2ccc(F)c(C#N)c2)n1CC1CC1 | – | –
39 | 127 to 128 | Cn1c(C(C)(C)C)c/c(=N\C(=O)c2cccc(Br)c2F)n1CC1CC1 | – | –
40 | 140 to 142 | Cc1c(C(C)(C)C)s/c(=N\C(=O)c2cc(C(F)(F)F)ccc2F)n1C | – | –
41 | 181 to 183 | Cc1ncccc1C(=O)/N=c1\sc2ccccc2n1CC1CC1 | – | –
42 | – | Cc1c(C(C)(C)C)s/c(=N\S(=O)(=O)c2c(Cl)cccc2Cl)n1CC1CC1 [compound 402] | 15.4 | –
43 | 125 to 127 | Cc1s/c(=N\C(=O)c2ccccc2Cl)n(CC2CC2)c1C | – | –
44 | 104.5 to 105.5 | CCOCCn1cccc/c1=N\C(=O)c1cccc(C(F)(F)F)c1F | – | –
45 | 172 to 174 | CCCn1c(C)c(C(C)(C)C)s/c1=N\C(=O)c1cccc(C(F)(F)F)c1 | – | –
46 | 76 to 78 | CC(C)(C)c1nn(CC2CC2)/c(=N/C(=O)c2ccc(F)cc2C(F)(F)F)s1 | – | –
47 | 56 to 58 | O=C(/N=c1\ccccn1CCC1CC1)c1cccc(C(F)(F)F)c1F | – | –
48 | 76 to 78 | Cc1c(C(C)(C)C)s/c(=N\C(=O)c2cccc(C(F)(F)F)c2)n1CCN | – | –
49 | 104 to 106 | CCc1ccnc(C(=O)/N=c2\sc(C(C)(C)C)c(C)n2CC2CC2)c1 | – | –

Row | SMILES | melting point [°C] | IC50 (human CB2 receptor; [1]) [nM] | IC50 (human CB2 receptor) [nM]
50 | Cc1c(C(C)(C)C)s/c(=N\C(=O)C(F)(F)C(F)(F)C(F)(F)F)n1CC1CC1 [compound 336] | 147 to 148 | 2.9 | –
51 | Cc1c(Cl)cccc1C(=O)/N=c1\sc(C(C)(C)C)c(C)n1C [compound 139] | 161 to 162 | 7.4 | –
52 | COCCn1c(C)c(C(C)(C)C)s/c1=N\C(=O)c1cccc(I)c1 [compound 346] | 119 to 121 | 13.5 | –
53 | CCc1s/c(=N\C(=O)c2cccc(C(F)(F)F)c2F)n(CC2CC2)c1C [compound 109] | 164 to 166 | 1.3 | –
54 | CC(=O)OC(C(=O)/N=c1\sc(C(C)(C)C)c(C)n1CC1CC1)c1ccccc1 (centres unmarked) [compound 341] | 147 to 148 | 5.3 | –
55 | Cc1cccnc1C(=O)/N=c1\sc(C(C)(C)C)c(C)n1CC1CC1 [compound 293] | 88 to 89 | 7 | –
56 | COCCn1c(C)c(C(C)(C)C)s/c1=N\C(=O)c1cccc(Br)c1 [compound 345] | 89 to 91 | 12.7 | –
57 | CCn1c(C)c(C(C)(C)C)s/c1=N\C(=O)c1cc(F)c(Cl)cc1Cl [compound 160] | 112 to 114 | 8.5 | –
